Reference: patent publication US7655632B2, “Pyrazole derivative, medicinal composition containing the same, medicinal use thereof, and intermediate for production thereof” (Kissei Pharmaceutical Co., Ltd., priority 2002, dated 2010)

Assays:
human SGLT1 = target: T1, human SGLT1 (Homo sapiens, UniProt P13866); assay: Assay for inhibitory effects on human SGLT1 activity (uptake of methyl-α-D-glucopyranoside in CS1-5-11D cells); assay type: cell-based; details: CHO-K1 cells stably expressing human SGLT1 (CS1-5-11D); 1 mM α-MG uptake, 37° C., 1 hour
T1 construct: expressed in transfected cells
T1 sequence (P13866 1-664): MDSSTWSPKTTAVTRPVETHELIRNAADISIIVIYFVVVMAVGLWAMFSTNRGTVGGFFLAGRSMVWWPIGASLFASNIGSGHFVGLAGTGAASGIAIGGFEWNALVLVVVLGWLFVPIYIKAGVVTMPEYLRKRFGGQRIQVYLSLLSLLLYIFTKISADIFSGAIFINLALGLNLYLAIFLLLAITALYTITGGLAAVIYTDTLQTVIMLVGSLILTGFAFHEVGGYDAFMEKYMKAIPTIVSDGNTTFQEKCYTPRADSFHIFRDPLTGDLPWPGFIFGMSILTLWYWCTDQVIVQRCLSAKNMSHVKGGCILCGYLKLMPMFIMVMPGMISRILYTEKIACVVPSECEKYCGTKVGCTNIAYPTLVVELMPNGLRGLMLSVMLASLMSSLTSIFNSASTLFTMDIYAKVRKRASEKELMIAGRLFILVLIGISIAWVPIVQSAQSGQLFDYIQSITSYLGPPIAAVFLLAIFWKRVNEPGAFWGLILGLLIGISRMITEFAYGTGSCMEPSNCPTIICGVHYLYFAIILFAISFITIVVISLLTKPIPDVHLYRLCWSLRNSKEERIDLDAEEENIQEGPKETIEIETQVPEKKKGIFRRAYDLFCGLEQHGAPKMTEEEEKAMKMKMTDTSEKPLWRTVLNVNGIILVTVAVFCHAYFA
Procedure: Assay for Inhibitory Effects on Human SGLT1 Activity
1) Cloning and Construction of the Vector Expressing Human SGLT1
The cDNA library was prepared for PCR amplification by reverse transcription from total RNA deprived from human small intestine (Ori gene) using oligo-dT as a primer. Using this cDNA library as a template, the DNA fragment coding 1 to 2005 bp of human SGLT1 (ACCESSION: M24847), which was reported by Hediger et al., was amplified by PCR method and inserted into the multi-cloning site of pcDNA3.1(−) (Invitrogen). The DNA sequence inserted was perfectly matched to the previously reported sequence.
2) Establishment of Cell Line Stably Expressing Human SGLT1
The expression vector of human SGLT1 was digested by Sca I into a linear DNA. The linear DNA was transfected into CHO-K1 cells by means of lipofection (Effectene Transfection Reagent: QIAGEN). Neomycin resistant cell lines were selected by culture in the medium containing G418 (1 mg/mL, LIFE TECHNOLOGIES), and then the activity against the uptake of methyl-α-D-gluco-pyranoside was measured by the method described below. […] CS1-5-11D cells were cultured in the presence of G418 at 200 μg/mL.
3) Measurement of the Inhibitory Activity Against the Uptake of methyl-α-D-glucopyranoside (α-MG)
CS1-5-11D cells were seeded into a 96-well culture plate at a density of 3×10^4 cells/well and cultured for 2 days, and were used in the uptake assay. A mixture of non-labeled (Sigma) and ^14C-labeled α-MG (Amersham Pharmcia Biotec) was added to the uptake buffer (pH 7.4; containing 140 mM sodium chloride, 2 mM potassium chloride, 1 mM calcium chloride, 1 mM magnesium chloride, 10 mM 2-[4-(2-hydroxyethyl)-1-piperazinyl]ethane sulfonic acid, and 5 mM tris(hydroxymethyl)aminomethane) at the final concentration of 1 mM. A test compound was dissolved in dimethyl sulfoxide, and then appropriately diluted with distilled water. The test compound solution was added to the uptake buffer containing 1 mM α-MG, and designated as a measurement buffer. For the control group, the measurement buffer without any test compound was prepared. For measuring the basal uptake, a basal uptake measurement buffer which contains 140 mM chorine chloride instead of sodium chloride was prepared. After removing the culture medium of CS1-5-11D cells, 180 μL of the pre-treatment buffer (the basal uptake buffer without α-MG) was added to each well and incubated at 37° C. for 10 minutes. After repeating the same treatment, the pre-treatment buffer was removed. To each well was added 75 μL of the measurement buffer or the basal uptake buffer was added and incubated at 37° C. for 1 hour. After removing the measurement buffer, cells were washed twice with 180 μL per well of the washing buffer (the basal uptake buffer containing 10 mM non-labeled α-MG). The cells were solubilized by 75 μL per well of 0.2 mol/L sodium hydroxide. The cell lysates were transferred into PicoPlates (Packard), and then added 150 μL of MicroScint-40 (Packard) and mixed. Radioactivity was measured by means of micro-scintillation counter TopCount (Packard). One hundred % was set to the difference between the uptake in the control group and the basal uptake, and the uptake of methyl α-D-gluco-pyranoside at each drug concentration were calculated.

diabetic rats = assay: Assay for inhibitory effects on blood glucose level increase in rats (liquid meal tolerance test in diabetic rat model); assay type: in vivo; details: test compound 1 mg/kg orally, liquid meal 17.25 kcal/kg, mean ± S.E.; for Plasma glucose concentration 0.5 h: 0.5 hour after drug administration; for Plasma glucose concentration 1 h: 1 hour after drug administration; for Plasma glucose concentration 0 h: pretreatment (0 h)
Procedure: Assay for Inhibitory Effects on Blood Glucose Level Increase in rats
1) Preparation of Diabetic Rat Model
Male wistar rats (Japan Charles River), aged 8 weeks old, were injected nicotinamide (230 mg/kg) intraperitoneally. Fifteen minutes after injection, they were injected streptozotocin (85 mg/kg) intravenously from tail vain under anesthesia with ether. After a week, rats were fasted overnight and then glucose tolerance test (2 g/kg) was done.
2) Liquid Meal Tolerance Test
After overnight fasted, the diabetic rats were orally administered a test compound (1 mg/kg), which was dissolved in distilled water, in the drug-treating group, or distilled water alone in a control group. Immediately after the compound administration, 17.25 kcal/kg of liquid meal (No. 038, Control diet, assorted with dextrin and maltose; Oriental Yeast Co., Ltd.) was loaded orally. The blood was collected from tail artery immediately before and after administration with the time course, and treated with heparin immediately. The blood was centrifuged, and the plasma was collected to quantify the plasma glucose concentration by glucose oxidase method. The values in the table are presented as the mean ±S.E.

Row | Compound | IC50 (human SGLT1) [nM] | Plasma glucose concentration 0.5 h (diabetic rats) [mg/dL] | Plasma glucose concentration 1 h (diabetic rats) [mg/dL] | Plasma glucose concentration 0 h (diabetic rats) [mg/dL]
1 | 3-(β-D-Galactopyranosyloxy)-4-[(4-{3-[2-hydroxy-1-hydroxy-methyl-1-(methyl)ethylcarbamoyl]propyl}phenyl)methyl]-5-isopropyl-1H-pyrazole [Example 32] | 220 | 223 ± 20 | 278 ± 32 | 125 ± 8
2 | 3-(β-D-Glucopyranosyloxy)-4-({4-[3-(2-hydroxyethyl)-carbamoylpropyl]phenyl}methyl)-5-isopropyl-1H-pyrazole [Example 18] | 181 |  |  | 
3 | CC(C)c1[nH]nc(O[C@@H]2O[C@H](CO)[C@@H](O)[C@H](O)[C@H]2O)c1Cc1ccc(CCCC(=O)NCCCN(CCO)CCO)cc1 [Example 15, 3-(β-D-Glucopyranosyloxy)-5-isopropyl-4-{[4-(3-{3-[bis(2-hydroxyethyl)amino]propylcarbamoyl}propyl)phenyl]methyl}-1H-pyrazole] | 113 |  |  | 
4 | CC(C)c1[nH]nc(O[C@@H]2O[C@H](CO)[C@@H](O)[C@H](O)[C@H]2O)c1Cc1ccc(CCCC(=O)NC(CO)(CO)CO)cc1 [Example 21, 3-(β-D-Glucopyranosyloxy)-4-[(4-{3-[2-hydroxy-1,1-bis-(hydroxymethyl)ethylcarbamoyl]propyl}phenyl)methyl]-5-isopropyl-1H-pyrazole] | 12 | 156 ± 15 | 178 ± 19 | 118 ± 9
5 | CC(C)c1[nH]nc(O[C@@H]2O[C@H](CO)[C@@H](O)[C@H](O)[C@H]2O)c1Cc1ccc(/C=C/C(=O)NC(C)(CO)CO)cc1 [Example 27, 3-(β-D-Glucopyranosyloxy)-4-[(4-{(1E)-2-[2-hydroxy-1-hydroxymethyl-1-(methyl)ethylcarbamoyl]vinyl}phenyl)-methyl]-5-isopropyl-1H-pyrazole] | 237 |  |  | 
6 | CC(C)c1[nH]nc(O[C@@H]2O[C@H](CO)[C@@H](O)[C@H](O)[C@H]2O)c1Cc1ccc(/C=C/C(=O)NC(CO)(CO)CO)cc1 [Example 28, 3-(β-D-Glucopyranosyloxy)-4-[(4-{(1E)-2-[2-hydroxy-1,1-bis-(hydroxymethyl)ethylcarbamoyl]vinyl}phenyl)methyl]-5-isopropyl-1H-pyrazole] | 267 |  |  | 
7 | CC(C)c1[nH]nc(O[C@@H]2O[C@H](CO)[C@@H](O)[C@H](O)[C@H]2O)c1Cc1ccc(/C=C/C(=O)NC(C)(C)C(N)=O)cc1 [Example 29, 4-[(4-{(1E)-2-[1-Carbamoyl-1-(methyl)ethylcarbamoyl]vinyl}-phenyl)methyl]-3-(β-D-glucopyranosyloxy)-5-isopropyl-1H-pyrazole] | 431 |  |  | 
8 | CC(C)c1[nH]nc(O[C@@H]2O[C@H](CO)[C@@H](O)[C@H](O)[C@H]2O)c1Cc1ccc(CCCS(=O)(=O)NCCN)cc1 [Example 34, 4-({4-[3-(2-Aminoethylsulfamoyl)propyl]phenyl}methyl)-3-(β-D-glucopyranosyloxy)-5-isopropyl-1H-pyrazole] | 245 |  |  | 
9 | CC(C)c1[nH]nc(O[C@@H]2O[C@H](CO)[C@@H](O)[C@H](O)[C@H]2O)c1Cc1ccc(CCCS(=O)(=O)NC(C)(C)C(N)=O)cc1 [Example 35, 4-[(4-{3-[1-Carbamoyl-1-(methyl)ethylsulfamoyl]propyl}-phenyl)methyl]-3-(β-D-glucopyranosyloxy)-5-isopropyl-1H-pyrazole] | 115 |  |  | 
10 | CC(C)c1[nH]nc(O[C@@H]2O[C@H](CO)[C@H](O)[C@H](O)[C@H]2O)c1Cc1ccc(CCCC(=O)NC(C)(C)C(=O)N2CCNCC2)cc1 [Example 57, 3-(β-D-Galactopyranosyloxy)-5-isopropyl-4-{[4-(3-{1-[(piperazin-1-yl)carbonyl]-1-(methyl)ethylcarbamoyl}-propyl)phenyl]methyl}-1H-pyrazole] | 39 |  |  | 

Continued, in another order:

Row | IC50 (human SGLT1) [nM] | Compound | Plasma glucose concentration 0.5 h (diabetic rats) [mg/dL] | Plasma glucose concentration 1 h (diabetic rats) [mg/dL] | Plasma glucose concentration 0 h (diabetic rats) [mg/dL]
11 | 24 | CC(C)c1[nH]nc(O[C@@H]2O[C@H](CO)[C@@H](O)[C@H](O)[C@H]2O)c1Cc1ccc(CCCC(=O)NC(C)(C)C(N)=O)cc1 [Example 24, 4-[(4-{3-[1-Carbamoyl-1-(methyl)ethylcarbamoyl]propyl}-phenyl)methyl]-3-(β-D-glucopyranosyloxy)-5-isopropyl-1H-pyrazole] |  |  | 
12 | 52 | CC(C)c1[nH]nc(O[C@@H]2O[C@H](CO)[C@@H](O)[C@H](O)[C@H]2O)c1Cc1ccc(CCCC(=O)NC(C)(C)C(=O)NCCO)cc1 [Example 30, 3-(β-D-Glucopyranosyloxy)-4-[(4-{3-[1-(2-hydroxyethyl-carbamoyl)-1-(methyl)ethylcarbamoyl]propyl}phenyl)methyl]-5-isopropyl-1H-pyrazole] | 163 ± 8 | 187 ± 9 | 121 ± 6
13 | 96 | CC(C)c1[nH]nc(O[C@@H]2O[C@H](CO)[C@@H](O)[C@H](O)[C@H]2O)c1Cc1ccc(CCCC(=O)NC(C)(C)C(=O)NCC(N)=O)cc1 [Example 31, 4-[(4-{3-[1-Carbamoylmethylcarbamoyl-1-(methyl)ethyl-carbamoyl]propyl}phenyl)methyl]-3-(β-D-glucopyranosyloxy)-5-isopropyl-1H-pyrazole] |  |  | 
14 | 174 | CC(C)c1[nH]nc(O[C@@H]2O[C@H](CO)[C@H](O)[C@H](O)[C@H]2O)c1Cc1ccc(CCCC(=O)NC(C)(C)C(N)=O)cc1 [Example 33, 4-[(4-{3-[1-Carbamoyl-1-(methyl)ethylcarbamoyl]propyl}-phenyl)methyl]-3-(β-D-galactopyranosyloxy)-5-isopropyl-1H-pyrazole] | 207 ± 8 | 251 ± 21 | 127 ± 11
15 | 31 | CC(C)c1[nH]nc(O[C@@H]2O[C@H](CO)[C@H](O)[C@H](O)[C@H]2O)c1Cc1ccc(CCCC(=O)NC(C)(C)C(=O)N2CCN(CCO)CC2)cc1 [Example 48, 3-(β-D-Galactopyranosyloxy)-4-[(4-{3-[1-{[4-(2-hydroxy-ethyl)piperazin-1-yl]carbonyl}-1-(methyl)ethylcarbamoyl]-propyl}phenyl)methyl]-5-isopropyl-1H-pyrazole] | 139 ± 4 | 132 ± 4 | 112 ± 5
